According to article PMC10766610, “DCAF1-based PROTACs with activity against clinically validated targets overcoming intrinsic- and acquired-degrader resistance” (Nature Communications, 2024):
Where two headings read alike, the source gives them in different places.

Columns and labels:
CSK = target: T1, CSK (Homo sapiens, UniProt P41240); assay: Immunoblot of CSK in HEK293T cells; type: cell-based; settings: 6 h
T1 construct: host or cells: HEK293T
Experimental: (§1) Whole cell lysates for immunoblotting were prepared by pelleting cells at 4 °C (300 g) for 3 min. Cell pellets were then washed 1x with PBS and resuspended in RIPA lysis buffer (VWR, cat # 97063-270) supplemented with protease (Thermo Scientific, cat # A32955) and phosphatase (Thermo Scientific, cat # A32957) inhibitor tablets. Lysates were clarified at 16,000 × g for 15 min at 4 °C prior to quantification by Lowry assay (Bio-Rad cat # 5000113 and cat # 5000114). Whole-cell lysates were loaded into 4–20% Criterion TGX Precast 18 well gels (Bio-Rad, cat # 5671094) and separated by electrophoreses at 120 V for 1 h. The gels were transferred to a nitrocellulose membrane using the Trans-Blot Turbo (Bio-Rad) for 7 min and then blocked for 1 h at room temperature in Odyssey blocking buffer (LICOR Biosciences, cat # 927-50000). Membranes were probed with the appropriate primary antibodies (diluted 1:1000) overnight at 4 °C in 20% Odyssey blocking buffer in 1x TBST. Membranes were washed three times with 1x TBST (5 min per wash), and then incubated with IRDye goat anti-mouse (LICOR, cat # 926-32210) or goat anti-rabbit (LICOR, cat # 926-32211) secondary antibody diluted 1:10,000 in 20% Odyssey blocking buffer for 1 h at room temperature. After three 5-min washes with 1x TBST, the immunoblots were visualized using the ODYSSEY Infrared Imaging System (LICOR). […]

ABL1 = target: T2, ABL1 (Homo sapiens, UniProt P00519); assay: Immunoblot of ABL1 in HEK293T cells; type: cell-based; settings: 6 h
T2 construct: host or cells: HEK293T
Experimental: as §1

LYN = target: T3, LYN (Homo sapiens, UniProt P07948); assay: Immunoblot of LYN in HEK293T cells; type: cell-based; settings: 6 h
T3 construct: host or cells: HEK293T
Experimental: as §1

[1] = target: T4, DCAF1(WDR) with additional 10 µM BRD9-BD(130-250) (Homo sapiens, UniProt Q9H8M2+Q9Y4B6, E1398S); assay: DCAF1 TR-FRET, cooperative format with 10 µM BRD9-BD(130-250); type: binding; settings: read-out: TR-FRET Q. IC50 [μM], + BRD9
T4 construct: 2 nM human DCAF1(1073-1399)_E1398S-Avi-His; human BRD9-BD(130-250) in the cooperative assay; His6 (C); GST (PreScission site) (N, cleaved yes); made in house; host or cells: DCAF1: Sf9 with BirA; BRD9: E. coli Rosetta (pGEX6P1)
Experimental: Competition assay conditions consist of 20 µL total volume in white 384-well plates (Greiner), in 30 mM phosphate buffer pH 7.4 containing 140 mM NaCl, 0.01% Tween20, 1 mM TCEP and 1% final DMSO. Tested compounds at 14 different concentrations were pre-incubated at 22 °C for 30 min with a large excess of 10 µM human BTK (G389-S659) or 10 µM human BRD9-BD(130-250) in the cooperative assay or with buffer in standard binary assay. […] Samples were then incubated at 22 °C for 30 min before reading using a Tecan infinite M-1000 or PheraStar FSX (excitation 340 nm, emission 490 and 520 nm). DCAF1 protein was omitted in the negative control. IC50 fitting was carried out using an in-house developed software (Novartis Helios software application, unpublished, a publicly available alternative would be e.g., Graphpad Prism) using the methods described by Fomenko et al.[93] (regression algorithms for nonlinear dose-response curve fitting). Following normalization of activity values for the wells to % inhibition (% inhibition = [(high control-sample)/(high control-low control)] × 100). Data analysis could also be carried out using GraphPad Prism without prior normalization. The reported IC50 values are the average of at least two independent experiments.

[2] = target: DCAF1(WDR) + BRD9-BD(130-250) (Homo sapiens, UniProt Q9H8M2+Q9Y4B6, E1398S); assay: SPR ternary binding assay, immobilized DCAF1(WDR), BRD9-BD(130-250) in buffer
Experimental: Surface plasmon resonance (SPR) experiments were performed on Biacore T200 and 8 K+ instruments (Cytiva). […] Binary complexes were analyzed with a kinetic 1:1 fit model to obtain KD values. The fit of apparent steady state RU intensities of the ternary complexes was performed using a bell-shaped curve algorithm implemented in Graphpad Prism. […] Residence times (t1/2) were calculated by the inversion of the off-rate.

BRD9 = target: T5, BRD9 (Homo sapiens, UniProt Q9H8M2); assay: Capillary western of BRD9 in 768-O cells; type: cell-based; settings: 768-O cells (lacking VHL), 2 h
T5 sequence (Q9H8M2 1-597): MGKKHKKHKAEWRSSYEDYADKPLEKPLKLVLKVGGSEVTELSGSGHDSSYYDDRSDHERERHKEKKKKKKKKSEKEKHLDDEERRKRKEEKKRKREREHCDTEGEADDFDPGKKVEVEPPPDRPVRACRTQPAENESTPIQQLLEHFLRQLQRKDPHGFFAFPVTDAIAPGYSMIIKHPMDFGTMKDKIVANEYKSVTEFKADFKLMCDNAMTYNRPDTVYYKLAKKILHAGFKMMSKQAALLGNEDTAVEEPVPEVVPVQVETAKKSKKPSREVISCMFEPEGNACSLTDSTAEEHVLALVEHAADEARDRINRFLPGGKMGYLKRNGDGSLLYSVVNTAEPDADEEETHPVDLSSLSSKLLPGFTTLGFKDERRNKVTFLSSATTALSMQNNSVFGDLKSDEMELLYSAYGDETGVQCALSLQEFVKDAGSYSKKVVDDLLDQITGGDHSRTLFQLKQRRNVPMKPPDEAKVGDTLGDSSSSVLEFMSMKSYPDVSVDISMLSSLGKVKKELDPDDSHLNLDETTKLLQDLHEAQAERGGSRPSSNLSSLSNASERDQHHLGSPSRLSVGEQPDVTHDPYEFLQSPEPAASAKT
Experimental: Protein peaks were analyzed using Compass for Simple Western version 5.0.1 (ProteinSimple), area under the curve for both α-tubulin ([…]) and BRD9 (90 kDa) per capillary was extracted and BRD9 area was normalized to α-tubulin area on a per-capillary basis before each sample was normalized to the DMSO for each run of three triplicates.

Sequence of DCAF1(WDR) + BRD9-BD(130-250) (Q9Y4B6 1073-1399 E1398S, one chain of several): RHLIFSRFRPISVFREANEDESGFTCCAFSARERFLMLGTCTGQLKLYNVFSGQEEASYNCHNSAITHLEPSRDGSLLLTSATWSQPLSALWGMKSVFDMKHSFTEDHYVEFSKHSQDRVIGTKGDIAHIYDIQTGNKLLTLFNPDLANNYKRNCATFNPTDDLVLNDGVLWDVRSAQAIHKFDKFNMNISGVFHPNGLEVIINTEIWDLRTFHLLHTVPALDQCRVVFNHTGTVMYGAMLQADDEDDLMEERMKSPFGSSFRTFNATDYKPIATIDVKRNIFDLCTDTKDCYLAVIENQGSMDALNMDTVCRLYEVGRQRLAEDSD
T3 sequence (P07948 whole entry): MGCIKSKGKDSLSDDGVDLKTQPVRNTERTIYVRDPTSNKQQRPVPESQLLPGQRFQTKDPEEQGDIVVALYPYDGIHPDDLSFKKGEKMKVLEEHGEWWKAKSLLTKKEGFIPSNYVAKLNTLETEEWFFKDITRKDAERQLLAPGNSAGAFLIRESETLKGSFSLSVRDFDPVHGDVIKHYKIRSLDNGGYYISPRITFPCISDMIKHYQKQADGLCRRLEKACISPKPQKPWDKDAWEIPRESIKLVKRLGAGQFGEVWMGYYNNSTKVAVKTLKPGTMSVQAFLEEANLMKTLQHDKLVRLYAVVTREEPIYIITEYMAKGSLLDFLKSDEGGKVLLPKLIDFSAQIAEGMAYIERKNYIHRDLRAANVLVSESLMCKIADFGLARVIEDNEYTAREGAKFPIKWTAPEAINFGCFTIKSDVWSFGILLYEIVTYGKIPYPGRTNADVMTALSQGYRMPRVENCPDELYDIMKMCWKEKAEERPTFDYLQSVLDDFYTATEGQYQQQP
T2 sequence (P00519 whole entry): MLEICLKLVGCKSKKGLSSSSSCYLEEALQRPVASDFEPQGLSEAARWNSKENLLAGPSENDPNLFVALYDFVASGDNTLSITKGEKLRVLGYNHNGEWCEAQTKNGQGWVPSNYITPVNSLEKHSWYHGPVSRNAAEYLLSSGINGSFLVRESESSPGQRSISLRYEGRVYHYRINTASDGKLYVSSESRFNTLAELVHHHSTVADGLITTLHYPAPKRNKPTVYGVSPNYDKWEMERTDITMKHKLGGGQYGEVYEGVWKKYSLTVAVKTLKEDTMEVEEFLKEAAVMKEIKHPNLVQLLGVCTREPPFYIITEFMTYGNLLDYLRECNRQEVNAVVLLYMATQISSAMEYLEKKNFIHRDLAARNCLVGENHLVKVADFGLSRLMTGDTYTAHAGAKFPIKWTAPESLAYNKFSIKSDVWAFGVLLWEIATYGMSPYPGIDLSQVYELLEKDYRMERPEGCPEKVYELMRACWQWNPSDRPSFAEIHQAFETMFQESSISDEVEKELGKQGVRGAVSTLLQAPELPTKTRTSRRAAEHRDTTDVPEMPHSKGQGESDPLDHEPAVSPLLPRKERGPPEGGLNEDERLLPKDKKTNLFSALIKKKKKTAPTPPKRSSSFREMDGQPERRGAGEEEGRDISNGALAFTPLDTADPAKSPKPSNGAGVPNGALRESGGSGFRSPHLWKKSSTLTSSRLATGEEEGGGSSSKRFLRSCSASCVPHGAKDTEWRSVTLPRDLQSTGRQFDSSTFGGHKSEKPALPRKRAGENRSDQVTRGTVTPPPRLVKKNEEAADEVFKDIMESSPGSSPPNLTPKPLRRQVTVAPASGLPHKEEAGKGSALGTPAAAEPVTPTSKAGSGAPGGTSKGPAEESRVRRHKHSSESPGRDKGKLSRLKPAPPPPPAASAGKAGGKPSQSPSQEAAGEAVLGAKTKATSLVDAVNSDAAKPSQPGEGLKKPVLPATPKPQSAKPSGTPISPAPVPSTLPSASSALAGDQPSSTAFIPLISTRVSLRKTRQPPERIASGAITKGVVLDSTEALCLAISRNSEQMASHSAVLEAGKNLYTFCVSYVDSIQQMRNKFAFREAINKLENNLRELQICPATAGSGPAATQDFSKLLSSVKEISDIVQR
T1 sequence (P41240 whole entry): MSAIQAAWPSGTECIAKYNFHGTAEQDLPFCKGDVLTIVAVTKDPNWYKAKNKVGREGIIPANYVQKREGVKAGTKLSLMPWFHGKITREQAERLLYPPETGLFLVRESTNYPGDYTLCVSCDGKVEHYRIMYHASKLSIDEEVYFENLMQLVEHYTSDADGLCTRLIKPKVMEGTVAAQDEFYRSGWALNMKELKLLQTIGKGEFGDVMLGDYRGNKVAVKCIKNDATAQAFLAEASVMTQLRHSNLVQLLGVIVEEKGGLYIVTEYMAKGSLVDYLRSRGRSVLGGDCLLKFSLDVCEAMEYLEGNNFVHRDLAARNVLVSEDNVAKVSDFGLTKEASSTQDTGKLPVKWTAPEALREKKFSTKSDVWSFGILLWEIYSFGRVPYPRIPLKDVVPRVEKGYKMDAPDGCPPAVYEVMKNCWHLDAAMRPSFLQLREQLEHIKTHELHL
T4 sequence (Q9Y4B6 1073-1399 E1398S, one chain of several): as the sequence (Q9Y4B6 1073-1399 E1398S, one chain of several) above

Structure (SMILES)	CSK protein levels (CSK)	ABL1 protein levels (ABL1)	LYN protein levels (LYN)	IC50 [1] [µM]	Kd ([2]; Kd1, apparent KD of first sigmoidal transition, in the presence of 0.2 µM BRD9-BD(130-250)) [µM]	Kd ([2]; SPR KD [μM], + BRD9, with additional BRD9-BD(130-250)) [µM]	Kd ([2]; read-out: Kd2, apparent KD of second sigmoidal transition, in the presence of 0.2 µM BRD9-BD(130-250)) [µM]	DC50 (BRD9) [nM]
Cc1nc(Nc2ncc(C(=O)Nc3c(C)cccc3Cl)s2)cc(N2CCC(OC3CCN(CCCCCCCC(=O)N4CCN(c5ccc6c(NCCN)nc(C7(c8ccc(Cl)cc8)CCCCC7)nc6c5)CC4)CC3)CC2)n1 [DDa-1]	significant reduction in protein levels	not	not					
COc1cc(-c2cn(C)c(=O)c3cnccc23)c(OC)cc1CN1CCC(OCCCCCC(=O)N2CCN(c3ccc4c(NCCN)nc(C5(c6ccc(Cl)cc6)CCCCC5)nc4c3)CC2)CC1 [DBr-1]				0.002	0.02	0.005	6.11	1040
